Laboratory results taken from ChEMBL document CHEMBL3525898, “Pharmacogenomics of gemcitabine metabolism: functional analysis of genetic variants in cytidine deaminase and deoxycytidine kinase” (Drug Metab Dispos, 2013).

Experiments:
Type in all cases: ADME
[1] = Activity of human recombinant N-terminal His-tagged DCK Pro122Ser mutant expressed in Escherichia coli BL21(DE3) cells assessed as cytosine-beta-D-arabinofuranoside-5'-MP formation incubated for 3 mins by liquid chromatography-tandem mass spectrometry; settings: 0.05 h
[2] = Activity of human recombinant N-terminal His-tagged DCK Ile24Val mutant expressed in Escherichia coli BL21(DE3) cells assessed as cytosine-beta-D-arabinofuranoside-5'-MP formation incubated for 3 mins by liquid chromatography-tandem mass spectrometry; settings: 0.05 h
[3] = Activity of human recombinant N-terminal His-tagged DCK Ala119Gly mutant expressed in Escherichia coli BL21(DE3) cells assessed as cytosine-beta-D-arabinofuranoside-5'-MP formation incubated for 3 mins by liquid chromatography-tandem mass spectrometry; settings: 0.05 h
[4] = Drug metabolism assessed as […] incubated for 1 min in presence of human recombinant N-terminal His-tagged DCK Pro122Ser mutant expressed in Escherichia coli BL21(DE3) cells by liquid chromatography-tandem mass spectrometry
[5] = Drug metabolism assessed as […] incubated for 1 min in presence of human recombinant N-terminal His-tagged DCK Ile24Val mutant expressed in Escherichia coli BL21(DE3) cells by liquid chromatography-tandem mass spectrometry
[6] = Ratio of intrinsic clearance for human recombinant N-terminal His-tagged DCK Ile24Val mutant expressed in Escherichia coli BL21(DE3) cells to intrisic clerance for human recombinant N-terminal His-tagged wild type DCK expressed in Escherichia coli BL21(DE3) cells
[7] = Drug metabolism assessed as […] incubated for 1 min in presence of human recombinant N-terminal His-tagged DCK Ala119Gly mutant expressed in Escherichia coli BL21(DE3) cells by liquid chromatography-tandem mass spectrometry

Km [1] [µM]	Vmax [1] [nmol/min/mg]	Km [2] [µM]	Vmax [2] [nmol/min/mg]	Km [3] [µM]	Vmax [3] [nmol/min/mg]	Km [4] [µM]	Vmax [4] [nmol/min/mg]	Km [5] [µM]	Vmax [5] [nmol/min/mg]	Ratio [6]	Km [7] [µM]	Vmax [7] [nmol/min/mg]	Structure (SMILES)
1.56	264	2.45	599.4	2.54	580.3								Nc1ccn([C@@H]2O[C@H](CO)[C@@H](O)[C@@H]2O)c(=O)n1 [CYTARABINE]
						1.43	573.2	1.52	1234	2	1.75	828.1	Nc1ccn([C@@H]2O[C@H](CO)[C@@H](O)C2(F)F)c(=O)n1 [GEMCITABINE]
